Legend:
σ1R = target: T1, σ1R (Cavia porcellus, UniProt Q60492); test: Ex vivo competitive radioligand binding assay for σ1R, [3H](+)-pentazocine; set-up: species or system Dunkin Hartley guinea pig; conditions: guinea pig brain membranes
T1 construct: guinea pig brain membranes protein; from tissue; host or cells: guinea pig brain membranes
Experimental: (§1) The ex vivo binding affinities of σRs of CNY‐01 and CNY‐02 were measured using a competitive radioligand binding assay.^[ [35] ^]
(§2) The following specific radioligands and tissue sources were used: (a) σ 1R, [^3H] (+)‐pentazocine, Dunkin Hartley guinea pig brain membranes; (b) σ 2R, [^3H]‐DTG, Dunkin Hartley guinea pig brain membranes. Membrane preparation of brain tissue was performed following the previously reported method.4 Generally, for σ 1R binding test, guinea pig brain membranes protein (5‐10 mg), [^3H]‐(+)‐pentazocine (4 nM), test compounds solution in various concentrations (10^−5 to 10^−10 M) were incubated at 25 °C for 180 min in Tris‐HCl buffer (pH 8.0). For σ 2R binding study, the membrane suspension was incubated with [^3H]‐DTG (3 nM), different concentration test compounds, within 400 nM (+)‐SKF10047 to block σ 1R. Nonspecific binding was conducted in both binding assays under similar conditions, adding […] haloperidol. After incubation, the mixture was rapidly filtrated through Whatman GF/B glass filters, washed twice and transferred to scintillation vials, and the radioactivity bound was measured by a Beckman LS 6500 liquid scintillation counter. Inhibition constants (Ki) were calculated based on the Cheng and Prusoff equation after the IC50 values were obtained.

σ2R = test: Ex vivo competitive radioligand binding assay for σ2R, [3H]-DTG; set-up: species or system Dunkin Hartley guinea pig; conditions: selectivity ratio, guinea pig brain membranes
Experimental: as §1
as §2, with “Membrane preparation of brain tissue was performed following the previously reported method.4 Generally, for σ 1R binding test, guinea pig brain membranes protein (5‐10 mg), [^3H]‐(+)‐pentazocine (4 nM), test compounds solution in various concentrations (10^−5 to 10^−10 M) were incubated at 25 °C for 180 min in Tris‐HCl buffer (pH 8.0).” left out

5-HT1E = target: T2, 5-HT1E (Homo sapiens, UniProt P28566); test: PDSP radioligand assay; type: binding
T2 construct: purchased NIMH Psychoactive Drug Screening Program (PDSP)
Experimental: as §1
(§3) Details of individual binding assay conditions and protocols are available at the NIMH PDSP website: https://pdsp.unc.edu/pdspweb/.

D4 = target: T3, D4 (Homo sapiens, UniProt P21917); test: PDSP radioligand assay; type: binding
T3 construct: purchased NIMH Psychoactive Drug Screening Program (PDSP)
Experimental: as §1, §3

H1 = H1 (Homo sapiens, UniProt P35367); test: PDSP radioligand assay; type: binding
Experimental: as §1, §3

D1 = D1 (Homo sapiens, UniProt P21728); test: PDSP radioligand assay; type: binding
Experimental: as §1, §3

5-HT1D = 5-HT1D (Homo sapiens, UniProt P28221); test: PDSP radioligand assay; type: binding
Experimental: as §1, §3

Beta1 = target: T4, Beta1 (Homo sapiens, UniProt P08588); test: PDSP radioligand assay; type: binding
T4 construct: purchased NIMH Psychoactive Drug Screening Program (PDSP)
Experimental: as §1, §3

5-HT5A = target: T5, 5-HT5A (Homo sapiens, UniProt P47898); test: PDSP radioligand assay; type: binding
T5 construct: purchased NIMH Psychoactive Drug Screening Program (PDSP)
Experimental: as §1, §3

DOR = target: T6, DOR (Homo sapiens, UniProt P41143); test: PDSP radioligand assay; type: binding
T6 construct: purchased NIMH Psychoactive Drug Screening Program (PDSP)
Experimental: as §1, §3

BZP Rat Brain Site = test: PDSP radioligand assay; type: binding; conditions: 10 µM
Experimental: as §1, §3

DAT = target: T7, DAT (Homo sapiens, UniProt Q01959); test: PDSP radioligand assay; type: binding
T7 construct: purchased NIMH Psychoactive Drug Screening Program (PDSP)
Experimental: as §1, §3

Alpha2A = target: T8, Alpha2A (Homo sapiens, UniProt P08913); test: PDSP radioligand assay; type: binding
T8 sequence (P08913 1-465): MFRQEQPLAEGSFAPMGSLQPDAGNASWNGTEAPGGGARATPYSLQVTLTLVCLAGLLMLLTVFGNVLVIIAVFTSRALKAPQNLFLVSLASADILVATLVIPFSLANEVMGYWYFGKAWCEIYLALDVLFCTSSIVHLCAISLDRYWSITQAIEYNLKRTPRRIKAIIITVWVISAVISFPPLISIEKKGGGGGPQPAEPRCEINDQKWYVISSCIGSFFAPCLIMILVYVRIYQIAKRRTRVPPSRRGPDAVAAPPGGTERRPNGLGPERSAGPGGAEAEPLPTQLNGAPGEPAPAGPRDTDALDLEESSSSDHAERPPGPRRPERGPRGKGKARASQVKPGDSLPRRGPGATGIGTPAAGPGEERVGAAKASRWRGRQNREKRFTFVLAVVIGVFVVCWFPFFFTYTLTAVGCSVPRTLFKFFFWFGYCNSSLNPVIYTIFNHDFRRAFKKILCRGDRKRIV
Experimental: as §1, §3

Alpha2C = target: T9, Alpha2C (Homo sapiens, UniProt P18825); test: PDSP radioligand assay; type: binding
T9 sequence (P18825 1-462): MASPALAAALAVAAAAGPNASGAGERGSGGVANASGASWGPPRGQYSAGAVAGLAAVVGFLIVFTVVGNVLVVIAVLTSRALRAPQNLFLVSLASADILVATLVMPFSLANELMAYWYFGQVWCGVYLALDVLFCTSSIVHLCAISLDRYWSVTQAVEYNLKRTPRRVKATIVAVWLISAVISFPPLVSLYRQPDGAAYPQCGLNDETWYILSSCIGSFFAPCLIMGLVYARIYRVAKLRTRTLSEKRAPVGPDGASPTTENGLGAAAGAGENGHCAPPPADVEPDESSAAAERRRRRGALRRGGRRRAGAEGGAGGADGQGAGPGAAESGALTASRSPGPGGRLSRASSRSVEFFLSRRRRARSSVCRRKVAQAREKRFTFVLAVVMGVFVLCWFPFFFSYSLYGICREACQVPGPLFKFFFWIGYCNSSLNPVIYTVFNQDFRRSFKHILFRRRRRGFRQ
Experimental: as §1, §3

M1 = target: T10, M1 (Homo sapiens, UniProt P11229); test: PDSP radioligand assay; type: binding
T10 construct: purchased NIMH Psychoactive Drug Screening Program (PDSP)
Experimental: as §1, §3

5-HT1D, sequence (P28221 whole entry, species assumed): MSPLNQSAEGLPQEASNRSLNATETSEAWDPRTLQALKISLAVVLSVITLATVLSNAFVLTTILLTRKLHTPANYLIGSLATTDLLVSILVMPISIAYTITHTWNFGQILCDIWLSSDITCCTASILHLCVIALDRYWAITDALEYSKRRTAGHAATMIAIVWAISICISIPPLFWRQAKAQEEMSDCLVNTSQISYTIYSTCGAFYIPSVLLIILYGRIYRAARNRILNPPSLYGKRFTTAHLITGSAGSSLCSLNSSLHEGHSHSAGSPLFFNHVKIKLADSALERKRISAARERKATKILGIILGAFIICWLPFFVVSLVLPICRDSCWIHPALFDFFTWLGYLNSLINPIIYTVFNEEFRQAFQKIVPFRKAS
D1, sequence (P21728 whole entry): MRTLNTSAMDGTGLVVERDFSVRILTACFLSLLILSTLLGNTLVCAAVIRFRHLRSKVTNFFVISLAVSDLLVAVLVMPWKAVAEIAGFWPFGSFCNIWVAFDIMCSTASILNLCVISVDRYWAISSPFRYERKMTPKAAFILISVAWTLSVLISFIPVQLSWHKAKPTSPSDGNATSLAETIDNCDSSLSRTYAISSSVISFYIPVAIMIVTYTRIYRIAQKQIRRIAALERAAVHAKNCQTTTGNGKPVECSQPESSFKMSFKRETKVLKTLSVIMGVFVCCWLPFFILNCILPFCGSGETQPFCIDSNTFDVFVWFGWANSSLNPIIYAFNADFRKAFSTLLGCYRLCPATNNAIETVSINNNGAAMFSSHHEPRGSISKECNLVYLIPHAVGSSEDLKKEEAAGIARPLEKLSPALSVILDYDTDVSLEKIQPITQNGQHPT
H1, sequence (P35367 whole entry): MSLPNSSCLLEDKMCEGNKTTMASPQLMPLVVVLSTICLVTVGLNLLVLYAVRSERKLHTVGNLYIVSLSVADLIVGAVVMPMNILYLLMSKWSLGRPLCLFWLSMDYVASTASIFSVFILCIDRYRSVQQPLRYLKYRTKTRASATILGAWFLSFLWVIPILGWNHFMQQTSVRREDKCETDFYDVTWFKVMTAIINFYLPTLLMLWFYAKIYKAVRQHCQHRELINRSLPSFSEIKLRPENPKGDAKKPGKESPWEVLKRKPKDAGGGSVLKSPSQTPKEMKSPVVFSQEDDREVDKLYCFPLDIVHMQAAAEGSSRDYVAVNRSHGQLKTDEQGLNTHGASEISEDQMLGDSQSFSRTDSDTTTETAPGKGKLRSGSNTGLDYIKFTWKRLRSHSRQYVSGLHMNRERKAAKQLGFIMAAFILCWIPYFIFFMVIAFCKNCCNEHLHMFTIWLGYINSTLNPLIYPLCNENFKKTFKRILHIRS
T3 sequence (P21917 whole entry): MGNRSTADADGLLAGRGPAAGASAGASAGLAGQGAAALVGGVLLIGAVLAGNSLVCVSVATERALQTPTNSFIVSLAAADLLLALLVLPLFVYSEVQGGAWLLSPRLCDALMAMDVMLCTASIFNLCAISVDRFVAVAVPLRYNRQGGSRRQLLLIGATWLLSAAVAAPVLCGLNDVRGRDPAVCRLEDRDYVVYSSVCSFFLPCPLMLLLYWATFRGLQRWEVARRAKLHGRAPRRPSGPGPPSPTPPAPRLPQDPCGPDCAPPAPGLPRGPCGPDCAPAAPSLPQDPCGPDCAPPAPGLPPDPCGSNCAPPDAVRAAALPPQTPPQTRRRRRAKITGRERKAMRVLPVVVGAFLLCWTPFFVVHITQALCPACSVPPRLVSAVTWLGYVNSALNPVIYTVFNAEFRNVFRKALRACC
T10 sequence (P11229 whole entry): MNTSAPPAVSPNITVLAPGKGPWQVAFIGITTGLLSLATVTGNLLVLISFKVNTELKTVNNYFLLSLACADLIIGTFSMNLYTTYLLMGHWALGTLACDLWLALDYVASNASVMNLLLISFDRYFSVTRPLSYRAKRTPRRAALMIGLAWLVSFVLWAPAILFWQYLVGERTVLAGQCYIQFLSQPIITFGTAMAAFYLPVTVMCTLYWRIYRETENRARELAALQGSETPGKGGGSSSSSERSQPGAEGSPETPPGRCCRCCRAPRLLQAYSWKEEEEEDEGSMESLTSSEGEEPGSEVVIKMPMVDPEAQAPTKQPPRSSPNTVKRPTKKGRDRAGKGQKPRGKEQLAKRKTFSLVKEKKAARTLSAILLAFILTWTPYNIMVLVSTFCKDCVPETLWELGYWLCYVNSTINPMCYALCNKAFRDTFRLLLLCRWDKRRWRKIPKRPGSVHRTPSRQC
T7 sequence (Q01959 whole entry): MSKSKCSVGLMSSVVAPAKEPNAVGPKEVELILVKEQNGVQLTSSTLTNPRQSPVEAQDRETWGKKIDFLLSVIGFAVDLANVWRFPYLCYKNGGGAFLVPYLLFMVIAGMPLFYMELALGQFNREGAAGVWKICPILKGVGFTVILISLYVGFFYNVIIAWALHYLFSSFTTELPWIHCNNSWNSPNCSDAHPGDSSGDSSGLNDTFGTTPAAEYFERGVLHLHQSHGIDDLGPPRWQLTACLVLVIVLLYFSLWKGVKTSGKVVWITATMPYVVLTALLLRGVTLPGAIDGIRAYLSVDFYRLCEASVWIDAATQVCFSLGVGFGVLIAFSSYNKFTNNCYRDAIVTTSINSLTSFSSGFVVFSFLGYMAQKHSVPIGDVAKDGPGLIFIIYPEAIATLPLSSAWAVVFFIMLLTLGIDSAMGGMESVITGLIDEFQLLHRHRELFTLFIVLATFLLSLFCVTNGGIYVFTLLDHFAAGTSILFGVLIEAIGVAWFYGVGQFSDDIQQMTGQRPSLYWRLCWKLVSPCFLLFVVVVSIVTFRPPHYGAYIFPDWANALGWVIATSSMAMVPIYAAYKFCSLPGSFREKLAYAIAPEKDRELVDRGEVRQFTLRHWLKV
T1 sequence (Q60492 whole entry): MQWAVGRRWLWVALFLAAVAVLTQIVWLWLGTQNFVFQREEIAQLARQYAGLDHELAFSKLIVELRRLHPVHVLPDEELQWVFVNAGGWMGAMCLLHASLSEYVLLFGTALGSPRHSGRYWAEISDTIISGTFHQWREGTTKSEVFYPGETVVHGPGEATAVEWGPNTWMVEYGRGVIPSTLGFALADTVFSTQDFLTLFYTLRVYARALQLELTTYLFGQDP
T6 sequence (P41143 whole entry): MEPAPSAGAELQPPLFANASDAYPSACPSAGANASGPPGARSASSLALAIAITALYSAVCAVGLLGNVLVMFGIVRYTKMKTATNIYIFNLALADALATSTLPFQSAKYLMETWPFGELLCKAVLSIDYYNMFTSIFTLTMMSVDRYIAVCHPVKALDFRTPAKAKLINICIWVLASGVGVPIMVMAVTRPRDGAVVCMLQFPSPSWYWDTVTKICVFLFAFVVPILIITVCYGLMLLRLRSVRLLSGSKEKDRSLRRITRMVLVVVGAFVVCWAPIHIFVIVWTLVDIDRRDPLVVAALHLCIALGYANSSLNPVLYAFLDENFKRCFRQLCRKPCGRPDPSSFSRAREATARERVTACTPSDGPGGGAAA
T5 sequence (P47898 whole entry): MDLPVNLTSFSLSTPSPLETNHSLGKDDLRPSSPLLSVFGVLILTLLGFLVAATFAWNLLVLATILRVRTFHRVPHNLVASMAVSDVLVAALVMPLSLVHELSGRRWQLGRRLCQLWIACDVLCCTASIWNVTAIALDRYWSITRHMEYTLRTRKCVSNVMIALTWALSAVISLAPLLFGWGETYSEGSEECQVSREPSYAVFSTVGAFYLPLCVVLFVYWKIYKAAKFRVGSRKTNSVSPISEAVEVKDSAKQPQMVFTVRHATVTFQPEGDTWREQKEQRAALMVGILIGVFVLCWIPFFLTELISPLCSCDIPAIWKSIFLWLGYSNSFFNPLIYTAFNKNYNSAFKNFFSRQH
T4 sequence (P08588 whole entry): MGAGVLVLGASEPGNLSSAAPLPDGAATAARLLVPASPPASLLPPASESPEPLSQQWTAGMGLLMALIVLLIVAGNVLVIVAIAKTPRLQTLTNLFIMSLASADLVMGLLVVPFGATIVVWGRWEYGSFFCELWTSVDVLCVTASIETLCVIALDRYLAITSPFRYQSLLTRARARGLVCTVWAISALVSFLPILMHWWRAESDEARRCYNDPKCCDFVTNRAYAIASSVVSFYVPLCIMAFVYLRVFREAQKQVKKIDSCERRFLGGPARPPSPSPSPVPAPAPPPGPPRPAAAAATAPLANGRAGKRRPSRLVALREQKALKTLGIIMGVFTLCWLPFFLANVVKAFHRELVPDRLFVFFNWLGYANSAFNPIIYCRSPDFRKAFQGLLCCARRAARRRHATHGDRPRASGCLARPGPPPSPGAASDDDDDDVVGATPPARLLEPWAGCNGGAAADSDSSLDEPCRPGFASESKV
T2 sequence (P28566 whole entry): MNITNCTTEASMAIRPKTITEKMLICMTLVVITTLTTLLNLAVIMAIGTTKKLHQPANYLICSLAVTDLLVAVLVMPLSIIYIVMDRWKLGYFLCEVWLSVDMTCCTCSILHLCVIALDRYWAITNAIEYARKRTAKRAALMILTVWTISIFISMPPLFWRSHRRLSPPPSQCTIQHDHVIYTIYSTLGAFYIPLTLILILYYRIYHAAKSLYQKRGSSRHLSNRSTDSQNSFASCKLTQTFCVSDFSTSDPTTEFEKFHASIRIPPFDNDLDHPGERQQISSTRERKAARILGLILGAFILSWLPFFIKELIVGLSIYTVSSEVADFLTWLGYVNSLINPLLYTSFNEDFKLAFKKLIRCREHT

| Structure (SMILES) | Ki (σ1R) | σ2R/σ1R (σ2R) | inhibition at 10 µM (5-HT1E) | inhibition at 10 µM (D4) | Ki (H1) | inhibition at 10 µM (H1) | inhibition at 10 µM (D1) | Ki (5-HT1D) | inhibition at 10 µM (5-HT1D) | inhibition at 10 µM (Beta1) | inhibition at 10 µM (5-HT5A) | inhibition at 10 µM (DOR) | Mean % (inhibition) (BZP Rat Brain Site) | inhibition at 10 µM (DAT) | Ki (Alpha2A) | inhibition at 10 µM (Alpha2A) | Ki (Alpha2C) | inhibition at 10 µM (Alpha2C) | inhibition at 10 µM (M1) | Ki (D1) |
| --- | --- | --- | --- | --- | --- | --- | --- | --- | --- | --- | --- | --- | --- | --- | --- | --- | --- | --- | --- | --- |
| COc1ccc(-c2nc(C)c(Cl)c(OCCCN3CCCCC3)n2)cc1 [CNY-01, 5‐chloro‐2‐(4‐methoxyphenyl)‐4‐methyl‐6‐(3‐(piperidin‐1‐yl)propoxy)pyrimidine] | 3.88 nM | 322 | 31.2% | 48% | 667 nM | 93.2% | 19% | 2670 nM | 91.9% | 7.15% | 31.9% | 3.77% | 10.99% | 20.9% | 2370 nM | 55.9% | 430 nM | 85.1% | 22.3% | – |
| Cc1nc(-c2ccc(Cl)cc2)nc(OCCCN2CCN(C)CC2)c1Cl [CNY-02, 5‐chloro‐2‐(4‐chlorophenyl)‐4‐methyl‐6‐(3‐(4‐methylpiperazin‐1‐yl)propoxy)pyrimidine] | 2.05 nM | 627 | 27.8% | 17.8% | – | 43.7% | 52.1% | 7280 nM | 54.5% | 3.55% | 29.4% | 1.3% | 23.26% | 33.8% | – | 47.6% | 3770 nM | 52.4% | 36% | 2340 nM |

Source: article PMC12140300, “Development of Carbon‐11 Labeled Pyrimidine Derivatives as Novel Positron Emission Tomography (PET) Agents Enabling Brain Sigma‐1 Receptor Imaging” (Advanced Science, 2025)
